SMILES strings stand for the structures. Read-outs that look alike come from different tables or passages of the source.

From patent publication US20200392116A1, “SUBSTITUTED HETEROCYCLES AS c-MYC TARGETING AGENTS” (NORTHWESTERN UNIVERSITY, priority 2019, published 2020) come the findings set out here.

Test [1] relates to MYC transcriptional activity (c-Myc E-box-luciferase reporter, MycCap cells). Nature of the test: MYC E-box luciferase reporter assay. Type of test: cell-based. Particulars: Mus musculus, Myc-CaP, read-out: Ebox reporter: IC50. Here is the method: To test the compounds, we evaluated the in silico hits in a MYC E-Box luciferase reporter assay to measure the effects of these compounds (referred to as Min-1 to Min-32) on MYC transcriptional activity. […] (See FIG. 2).
MycCap cells stably expressing luciferase with CMV promoter (MycCap-luc) or c-Myc E-box-luciferase reporter (MycCap Ebox-luc) were plated at 10000 cells per well in 96 well white-wall plate. Serial dilutions of 361 were treated next day. At 4 hours of treatment, luminescence signal was determined immediately after adding 150 μg/ml of Luciferin to the well. (See FIG. 12).

Another test relates to CMV reporter. Nature of the test: CMV reporter assay (control reporter beside the Ebox reporter). It is filed as cell-based. (A reporter such as luciferase makes a cellular process visible.)

For orientation: IC50 means the concentration needed to halve the response being measured. Regarding `Cn1nc(C(F)(F)F)c(Oc2ccc(Cl)c(F)c2)c1-c1ccc(OCc2ccc(Cl)cc2)cc1O` [NUCC-0202537], the half-maximal inhibitory concentration (IC50) was 5 to 10 µM in test [1] (class symbols) and 40 µM with CMV reporter.
As to `Cn1nc(C(F)(F)F)cc1-c1ccc(OCc2ccc(Cl)cc2)c(-c2ccc(Cl)c(C(F)(F)F)c2)c1O` [NUCC-0202538], the IC50 (in test [1] (given as numeric bound); in the test with CMV reporter) was greater than 50 µM each time.
Take `CNC(=O)c1cc(-c2ccc(OCc3ccc(Cl)cc3)c(-c3ccc(Cl)c(C(F)(F)F)c3)c2O)n(C)n1` [NUCC-0202635]: the IC50 in test [1] (class symbols) was 10 to 50 µM; in the test on CMV reporter, greater than 50 µM.
Taken in the same sequence, the figures for `Oc1cc(OCc2ccc(Cl)cc2)ccc1-c1[nH]nc(C(F)(F)F)c1Oc1ccc(F)c(Cl)c1` [NUCC-0202636] were 5 to 10 µM and 41 µM.
In the same order, the values of `Cn1nc(C(F)(F)F)c(Oc2ccc(F)c(Cl)c2)c1-c1ccc(OCc2ccc(Cl)cc2)cc1O` [NUCC-0202637] are 5 to 10 µM and 43 µM.
For the compound `Cn1nc(O)cc1-c1ccc(OCc2ccc(Cl)cc2)c(-c2ccc(Cl)c(C(F)(F)F)c2)c1O` [NUCC-0202638], the IC50 in test [1] (class symbols) is 10 to 50 µM; with CMV reporter, greater than 50 µM.
In the case of `COc1c(C(F)(F)F)n[nH]c1-c1ccc(OCc2ccc(Cl)cc2)cc1O` [NUCC-0202639], the IC50 in test [1] (class symbols) is 5 to 10 µM; with CMV reporter it was 32 µM.
For `Cn1nc(C(F)(F)F)cc1-c1ccc(OCc2ccc(Cl)cc2)c(-c2ccc(Cl)c(C(F)(F)F)c2)n1` [NUCC-0202640], the half-inhibitory concentration (IC50) (in test [1] (given as numeric bound); in the test on CMV reporter) was greater than 50 µM throughout.
As to `Cn1nc(C(F)(F)F)cc1-c1ccc(OCc2ccc(Cl)cc2)c(-c2ccc(Cl)c(C(F)(F)F)c2)c1F` [NUCC-0202641], the IC50 (in test [1] (given as numeric bound); in the test with CMV reporter) was greater than 50 µM in each case.
Turning to `Cn1nc(-c2cc(Cl)c(OCc3ccc(Cl)cc3)c(-c3ccc(Cl)c(C(F)(F)F)c3)c2O)cc1C(F)(F)F` [NUCC-0202642], the IC50 (in test [1] (given as numeric bound); with CMV reporter) was greater than 50 µM in each case.
As to `Cn1nc(-c2ccc(OCc3ccc(Cl)cc3)cc2O)c(Oc2ccc(Cl)c(F)c2)c1C(F)(F)F` [NUCC-0202643], the half-maximal inhibitory concentration (IC50) in test [1] (class symbols) was less than 5 µM; in the test on CMV reporter, greater than 50 µM.
Taken in the same sequence, the figures for `Cn1nc(-c2ccc(OCc3ccc(Cl)cc3)c(-c3ccc(Cl)c(C(F)(F)F)c3)c2O)cc1O` [NUCC-0202644] were 10 to 50 µM and greater than 50 µM.
In the same order, the values of `Cn1nc(C(F)(F)F)cc1-c1cc(Cl)c(OCc2ccc(Cl)cc2)c(-c2ccc(Cl)c(C(F)(F)F)c2)c1O` [NUCC-0202648] are less than 5 µM and greater than 50 µM.
In the same order, the values of `Oc1c(-c2cc(C(F)(F)F)n[nH]2)cc(Cl)c(OCc2ccc(Cl)cc2)c1-c1ccc(Cl)c(C(F)(F)F)c1` [NUCC-0202649] are less than 5 µM and greater than 50 µM.
On to `Cn1nc(C(F)(F)F)cc1-c1ccc(OCc2ccc(Cl)cc2)c(-c2ccc(Cl)c(C(F)(F)F)c2)c1Cl` [NUCC-0202650], for which the IC50 (in test [1] (given as numeric bound); in the test on CMV reporter) was greater than 50 µM throughout.
In the case of `COc1c(C(F)(F)F)nn(C)c1-c1ccc(OCc2ccc(Cl)cc2)cc1O` [NUCC-0202651], the IC50 in test [1] (class symbols) is 5 to 10 µM; with CMV reporter, greater than 50 µM.
On to `COc1c(-c2ccc(OCc3ccc(Cl)cc3)cc2O)nn(C)c1C(F)(F)F` [NUCC-0202652], for which the IC50 (in test [1] (given as numeric bound); in the test with CMV reporter) was greater than 50 µM in each case.
Turning to `Cn1nc(C(F)(F)F)cc1-c1cnc(OCc2ccc(Cl)cc2)c(-c2ccc(Cl)c(C(F)(F)F)c2)c1O` [NUCC-0202686], the results for the IC50 (in test [1] (class symbols); with CMV reporter) were less than 5 µM and 31 µM, respectively.
`Oc1c(-c2cc(C(F)(F)F)n[nH]2)cc(F)c(OCc2ccc(Cl)cc2)c1-c1ccc(Cl)c(C(F)(F)F)c1` [NUCC-0202687]: the results for the IC50 (in test [1] (class symbols); in the test with CMV reporter) were less than 5 µM and greater than 50 µM, respectively.
As to `Cn1nc(C(F)(F)F)cc1-c1ccc(N(Cc2ccc(Cl)cc2)C(=O)c2cncc(C(F)(F)F)c2)cc1O` [NUCC-0202688], the half-maximal inhibitory concentration (IC50) is 5 to 10 µM in test [1] (class symbols) and greater than 50 µM with CMV reporter.
Regarding `Cn1nc(-c2ccc(N(Cc3ccc(Cl)cc3)C(=O)c3cncc(C(F)(F)F)c3)cc2O)cc1C(F)(F)F` [NUCC-0202689], the IC50 (in test [1] (given as numeric bound); in the test with CMV reporter) was greater than 50 µM each time.
Consider `Cn1nc(C(F)(F)F)cc1-c1ccc(NC(=O)c2ccc(Cl)c(C(F)(F)F)c2)cc1O` [NUCC-0202690], for which the IC50 in test [1] (class symbols) is less than 5 µM; in the test on CMV reporter, greater than 50 µM.
On to `Cn1nc(-c2ccc(NC(=O)c3ccc(Cl)c(C(F)(F)F)c3)cc2O)cc1C(F)(F)F` [NUCC-0202691], for which the IC50 (in test [1] (given as numeric bound); in the test with CMV reporter) was greater than 50 µM each time.
On to `Cn1nc(C(F)(F)F)cc1-c1ccc(N(Cc2ccc(Cl)cc2)C(=O)c2cncc(F)c2)cc1O` [NUCC-0202692], for which the IC50 in test [1] (class symbols) is 5 to 10 µM; in the test on CMV reporter, greater than 50 µM.
In the same order, the values of `Cn1nc(C(F)(F)F)cc1-c1ccc(N(Cc2ccc(Cl)cc2)C(=O)c2ccc3nccn3c2)cc1O` [NUCC-0202693] are less than 5 µM and greater than 50 µM.
In the case of `Cn1nc(-c2ccc(N(Cc3ccc(Cl)cc3)C(=O)c3ccc(Cl)cc3)cc2O)cc1C(F)(F)F` [NUCC-0202694], the IC50 (in test [1] (given as numeric bound); with CMV reporter) was greater than 50 µM throughout.
As for `COc1cccc(C(=O)N(Cc2ccc(Cl)cc2)c2ccc(-c3cc(C(F)(F)F)n(C)n3)c(O)c2)c1` [NUCC-0202695], the IC50 (in test [1] (given as numeric bound); in the test on CMV reporter) was greater than 50 µM throughout.
As for `Cn1nc(-c2ccc(N(Cc3ccc(Cl)cc3)C(=O)c3ccnc(C(F)(F)F)c3)cc2O)cc1C(F)(F)F` [NUCC-0202696], the half-inhibitory concentration (IC50) (in test [1] (given as numeric bound); in the test on CMV reporter) was greater than 50 µM throughout.
As to `Cn1nc(-c2ccc(N(Cc3ccc(Cl)cc3)C(=O)c3cncc(F)c3)cc2O)cc1C(F)(F)F` [NUCC-0202697], the IC50 (in test [1] (given as numeric bound); with CMV reporter) was greater than 50 µM throughout.
Regarding `COc1cccc(C(=O)N(Cc2ccc(Cl)cc2)c2ccc(-c3cc(C(F)(F)F)nn3C)c(O)c2)c1` [NUCC-0202698], the IC50 in test [1] (class symbols) was 5 to 10 µM; in the test with CMV reporter it was greater than 50 µM.
As for `Cn1nc(-c2ccc(N(Cc3ccc(Cl)cc3)C(=O)c3cccc(Cl)c3)cc2O)cc1C(F)(F)F` [NUCC-0202699], the IC50 (in test [1] (given as numeric bound); with CMV reporter) was greater than 50 µM throughout.
As for `Cn1nc(C(F)(F)F)cc1-c1ccc(N(Cc2ccc(Cl)cc2)C(=O)c2ccnc(C(F)(F)F)c2)cc1O` [NUCC-0202700], the IC50 in test [1] (class symbols) is less than 5 µM; in the test with CMV reporter it was greater than 50 µM.
`Cn1nc(-c2ccc(N(Cc3ccc(Cl)cc3)C(=O)c3ccc(F)cc3)cc2O)cc1C(F)(F)F` [NUCC-0202701]: the concentration for half-maximal inhibition (IC50) (in test [1] (given as numeric bound); in the test with CMV reporter) was greater than 50 µM each time.
Regarding `Cn1nc(-c2ccc(N(Cc3ccc(Cl)cc3)C(=O)c3ccccc3Cl)cc2O)cc1C(F)(F)F` [NUCC-0202702], the IC50 (in test [1] (given as numeric bound); in the test on CMV reporter) was greater than 50 µM in each case.
Consider `Cn1nc(C(F)(F)F)cc1-c1ccc(N(Cc2ccc(Cl)cc2)C(=O)c2ccc(Cl)cc2)cc1O` [NUCC-0202703], for which the IC50 is less than 5 µM in test [1] (class symbols) and greater than 50 µM in the test with CMV reporter.
Regarding `Cn1nc(C(F)(F)F)cc1-c1ccc(N(Cc2ccc(Cl)cc2)C(=O)c2cccc(Cl)c2)cc1O` [NUCC-0202704], the IC50 in test [1] (class symbols) was less than 5 µM; with CMV reporter, greater than 50 µM.
Regarding `Cn1nc(C(F)(F)F)cc1-c1ccc(N(Cc2ccc(Cl)cc2)C(=O)c2cccc(S(C)(=O)=O)c2)cc1O` [NUCC-0202705], the IC50 in test [1] (class symbols) was less than 5 µM; with CMV reporter, greater than 50 µM.
With `Cn1nc(C(F)(F)F)cc1-c1ccc(N(Cc2ccc(Cl)cc2)C(=O)c2ccc(F)c(F)c2)cc1O` [NUCC-0202706], the IC50 in test [1] (class symbols) is less than 5 µM; in the test with CMV reporter it was greater than 50 µM.
